One may read the IC50 as the concentration at which inhibition is half-maximal. Usually Kd stands for the free concentration of one partner at which half of the binding sites on the other are occupied at equilibrium, for simple one-to-one binding.

Read-outs that look alike come from different tables or passages of the source.

The values below come from publication PMC4595804, “A strategy to discover decoy chemokine ligands with an anti-inflammatory activity” (Scientific Reports, 2015).

The target in one assay is T1, mouse CCL17 (Mus musculus, UniProt Q9WUZ6).
T1 construct: purchased R&D systems
T1 sequence (Q9WUZ6 24-93): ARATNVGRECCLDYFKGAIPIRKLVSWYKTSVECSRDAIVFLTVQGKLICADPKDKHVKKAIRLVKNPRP
The experiment in a line: Calcium responses induced by mouse CCL17, neutraligand protocol, CCR4+Gqi5+ HEK cells. It is filed as cell-based. The note with it: 5 nM mouse CCL17 preincubated 1 h with compound; read-out: IC50, inhibition of mouse CCL17-evoked calcium signaling. On the procedure:
Dye loaded cells were placed in the FlexStation 3 (Molecular Devices). Calcium mobilization was measured at 401 and 475 nm emission fluorescence after excitation at 355 nm. For the primary screening, the ligands (50μl of chemokine mixed with DMSO or test compounds) were added to the cells at 40 s, followed by digitonin addition (50μl) at 100 s to the cells. Molecules were screened at a final concentration of 2μg/ml with 5 nM CCL17 or CCL22. […] Raw fluorescence data (at 401 and 475 nm) were exported and the ratio 401/475 was calculated. The calcium response values (height of peak response over baseline) were determined. Hits were selected by comparing the response amplitude at the time of the chemokine addition ± test compound. The Z’ factor[29] was calculated according to the following equation: Z’ = 1-(3SD+ + 3SD−)/|Ave+ − Ave−|, where SD+ and Ave+ are respectively the standard deviation and the mean value of the positive controls (chemokine + DMSO), while SD− and Ave− are respectively the standard deviation and the mean value of the negative controls (HEPES-BSA (0.1%) mixed with DMSO, or cells mixed with C-021). Hit molecules were confirmed by performing concentration-response curves and their half maximal inhibitory concentration (IC50) values were calculated using the Kaleidagraph software. […]
neutraligand. Human (○) or mouse (●) CCL17 (5nM) was preincubated with increasing […]

The next assay addresses T2, CCL22 (Homo sapiens, UniProt O00626).
T2 construct: codes for the mature CCL17 or CCL22 with an N-terminal thioredoxin-hexahistidin (TRX- (His)6) tag; thioredoxin (TRX) (N, cleaved yes); (His)6 (N, cleaved yes); made in house; host or cells: E. coli BL21 (DE3)
T2 sequence (O00626 25-93): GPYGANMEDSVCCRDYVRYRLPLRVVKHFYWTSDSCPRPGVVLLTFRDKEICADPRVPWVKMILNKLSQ
The experiment in a line: Tryptophan fluorescence assay on CCL22. The class given is binding. The method, then: Fluorescence measurements were performed on a spectrofluorometer (JobinYvon/Spex) in a quartz microcuvette at 20 °C. […] The fluorescence emission spectra were corrected by subtracting the emission scan of the compounds alone and data analysis was carried out with fluorescence intensities detected at 340 nm.

Another assay concerns the target T3, CCL2 (Homo sapiens, UniProt P13500).
T3 construct: purchased R&D systems
The experiment in a line: Selectivity, neutraligand protocol, EGFP-CCR2+ HEK cells. The class given is cell-based. The note with it: 10 μM compound, 5 nM CCL2, EGFP-CCR2+ HEK cells. The method, then:
Figure 6 (a) Selectivity of CCL17 and CCL22 neutraligands towards 10 chemokines according to the “neutraligand protocol”. […] Each column represents the mean (block) ± SD (bars) of n = 3 experiments performed in triplicate. *p < 0.05; **p < 0.01; ***p < 0.005 as compared to chemokine + DMSO. (b) Chemokine neutraligands inhibited CCR4 endocytosis induced by CCL22 or CCL17. EGFP-CCR4^+ HEK cells were incubated for 30 min with DMSO or chemokine (100 nM CCL22 or CCL17) in the presence or absence of test compounds. […] Cell surface EGFP-tagged CCR4 receptors were measured by EGFP antibody labeling and flow cytometry analysis. CCR4 internalization was expressed as a percentage of total receptor surface expression calculated using control cells incubated with DMSO (100%). […] The number of migrating cells in the presence of chemokine and compounds were expressed as the corresponding percentages. Results were analyzed by fitting the experimental curves (% of migrating cells vs log compound concentration) using the Kaleidagraph software program, and the corresponding IC50 values were calculated. […]
Dye loaded cells were placed in the FlexStation 3 (Molecular Devices). Calcium mobilization was measured at 401 and 475 nm emission fluorescence after excitation at 355 nm. […] Raw fluorescence data (at 401 and 475 nm) were exported and the ratio 401/475 was calculated. […]

T3 sequence (P13500 24-99): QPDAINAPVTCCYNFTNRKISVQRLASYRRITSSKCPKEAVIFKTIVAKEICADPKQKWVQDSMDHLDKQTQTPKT

As to `CC(C)=CCn1cnc2c1c(=O)n(C)c(=O)n2C` [GPN279, 1,3-dimethyl-7-(3-methylbut-2-enyl)-1H-purine-2,6(3H, 7H)-dione], the IC50 on mouse CCL17 was determined as 5.2 ± 0.9 µM.

Turning to `O=C(OCC(O)CO)c1ccccc1O` (stereo not shown) [GPN136, 2,3-dihydroxypropyl 2-hydroxybenzoate], the Kd is less than 0.05 µM at CCL22 (1.5 μM CCL22, tryptophan fluorescence at 340 nm, estimated, read-out: KD, high-affinity binding site class, on CCL22) and 53 µM on CCL22 ([…] CCL22, tryptophan fluorescence at 340 nm, read-out: KD, low-affinity binding site class, on CCL22). Moreover, the “effect on calcium responses induced by CCL2” value on CCL2 was “no effect”.
